# Columns and labels:
# [1] = system: Septoria tritici; assay: Septoria tritici on wheat, epoxiconazole with compound E (Example 9); assay type: in vivo
# Protocol: (§1) Wheat plants were inoculated with the fungus Septoria tritici. Four days after inoculation the plants were sprayed with a diluted suspension concentrate formulation of the fungicide epoxiconazole at rates of 3, 10, 30 and 100 mg of the fungicide per liter of spray solution, using a laboratory track sprayer which delivered the spray at a rate of 200 liters per hectare. Spray tests were also carried out with a diluted suspension concentrate additionally comprising the carbonate compound E (see Table 7) added to the spray solution at a rate of 0.1% v/v, based on the quantity of spray liquor. The leaves of the plants were assessed visually 12 days after the spray application and the damage was expressed as the percentage of the leaf area infected. Each spray test was replicated four times across the four application rates.
# The results shown in Table 14 below are mean averages over the four rates of epoxiconazole and the four replicates, and are compared to the efficacy of epoxiconazole in the absence of an adjuvant, and epoxiconazole in the presence of oleyl ethoxylate 20EO butyl end capped adjuvant used as a standard adjuvant for comparative purposes (at 0.1% by volume).
# [2] = system: Setaria viridis, Chenopodium album, Abutilon theophrasti and Ipomea hederacea; assay: Glasshouse post-emergence spray test, fomesafen with adjuvant (Example 2), mean across species; assay type: in vivo; details: fomesafen 60 or 120 g/ha, carbonate 0.2% v/v or Turbocharge 0.5% v/v; 14 and 21 days; Tukey HSD letter
# Protocol: (§2) Setaria viridis, Chenopodium album, Abutilon theophrasti and Ipomea hederacea seeds were sown into standard soil in pots and cultivated under controlled conditions in a glasshouse (at 24/18° C. day/night; 16 hours light; 65% humidity).
# (§3) When the plants were at the vegetative stage of 2-4 leaves they were sprayed with an aqueous spray solution containing the herbicide fomesafen and 0.2% v/v of one of the carbonates B92-P-Carbonate, B92-B-Carbonate and B96-P-Carbonate (see Table 1).
# (§4) The spray solution was applied with a cabinet tracksprayer with a flat fan nozzle (Teejet 11002VS) and an application volume of 200 liter/ha (at 2 bar). Fomesafen was applied at either 60 or 120 grams of pesticide per hectare.
# (§5) The test plants were then grown on, in a glasshouse under controlled conditions (at 24/18° C. day/night; 16 hours light; 65% humidity) and watered twice a day. After 14 and 21 days the test was evaluated for general crop injury (100% equals total damage to a plant; 0% equals no damage to a plant).
# (§6) The results shown in Table 4 below are mean averages over the two rates of fomesafen, three replicates and the two assessment timings, and are compared to the efficacy of fomesafen in the absence of an adjuvant, and fomesafen in the presence of the commercially available tank-mix adjuvant, Turbocharge®, which was used at an application rate of 0.5% by volume of the spray tank.
# [3] = system: COMBEN; assay: Glasshouse post-emergence spray test, fomesafen with adjuvant (Example 2); assay type: in vivo, Ipomea hederacea; details: fomesafen 60 or 120 g/ha, carbonate 0.2% v/v or Turbocharge 0.5% v/v; mean over two rates, three replicates, 14 and 21 days
# [4] = system: Setaria viridis; assay: as above; assay type: in vivo; details: fomesafen 60 or 120 g/ha, carbonate 0.2% v/v or Turbocharge 0.5% v/v; mean over two rates, three replicates, 14 and 21 days
# Protocol: as §2, §3, §4, §5, §6
# [5] = system: Chenopodium album; assay: as above; assay type: in vivo; details: fomesafen 60 or 120 g/ha, carbonate 0.2% v/v or Turbocharge 0.5% v/v; mean over two rates, three replicates, 14 and 21 days
# Protocol: as §2, §3, §4, §5, §6
# [6] = system: Abutilon theophrasti; assay: as above; assay type: in vivo; details: fomesafen 60 or 120 g/ha, carbonate 0.2% v/v or Turbocharge 0.5% v/v; mean over two rates, three replicates, 14 and 21 days
# Protocol: as §2, §3, §4, §5, §6
# [7] = system: Setaria viridis, Chenopodium album, Abutilon theophrasti and Digitaria sanguinalis; assay: Glasshouse post-emergence spray test, nicosulfuron with adjuvant (Example 1), mean across species; assay type: in vivo; details: nicosulfuron 30 or 60 g/ha, adjuvant 0.2% by volume; 17 and 21 days; Tukey HSD letter
# Protocol: (§7) Setaria viridis, Chenopodium album, Abutilon theophrasti and Digitaria sanguinalis seeds were sown into standard soil in pots and cultivated under controlled conditions in a glasshouse (at 24/18° C. day/night; 16 hours light; 65% humidity).
# (§8) When the plants were at the vegetative stage of 3-4 leaves they were sprayed with an aqueous spray solution containing the herbicide nicosulfuron and 0.2% v/v of one of the carbonates, B92-P-Carbonate, B92-B-Carbonate and B96-P-Carbonate (see Table 1).
# (§9) Each spray solution was applied with a cabinet tracksprayer with a flat fan nozzle (Teejet 11002VS) and an application volume of 200 liter/ha (at 2 bar). Nicosulfuron was applied at either 30 or 60 grams of pesticide per hectare.
# (§10) The test plants were then grown on, in a glasshouse under controlled conditions (at 24/18° C. day/night; 16 hours light; 65% humidity) and watered twice a day. After 17 and 21 days the test was evaluated for general crop injury (100% equals total damage to a plant; 0% equals no damage to a plant).
# (§11) The results shown in Table 3 below are mean averages over the two rates of nicosulfuron, three replicates and the two assessment timings, and are compared to the efficacy of nicosulfuron in the absence of an adjuvant and nicosulfuron in the presence of the commercially available tank-mix adjuvant, Atplus411F® (at 0.2% by volume).
# [8] = system: Setaria viridis; assay: Glasshouse post-emergence spray test, nicosulfuron with adjuvant (Example 1); assay type: in vivo; details: nicosulfuron 30 or 60 g/ha, adjuvant 0.2% by volume; mean over two rates, three replicates, 17 and 21 days
# Protocol: as §7, §8, §9, §10, §11
# [9] = system: Chenopodium album; assay: as above; assay type: in vivo; details: nicosulfuron 30 or 60 g/ha, adjuvant 0.2% by volume; mean over two rates, three replicates, 17 and 21 days
# Protocol: as §7, §8, §9, §10, §11
# [10] = system: Abutilon theophrasti; assay: as above; assay type: in vivo; details: nicosulfuron 30 or 60 g/ha, adjuvant 0.2% by volume; mean over two rates, three replicates, 17 and 21 days
# Protocol: as §7, §8, §9, §10, §11
# [11] = system: Digitaria sanguinalis; assay: as above; assay type: in vivo; details: nicosulfuron 30 or 60 g/ha, adjuvant 0.2% by volume; mean over two rates, three replicates, 17 and 21 days
# Protocol: as §7, §8, §9, §10, §11
# [12] = system: Setaria viridis, Chenopodium album, Abutilon theophrasti and Digitaria sanguinalis; assay: Glasshouse spray test, nicosulfuron with carbonates A-E (Example 5), mean over four plant species; assay type: in vivo; details: for Mean % Phytotoxicity: Atplus 411F 0.5% by volume, 22 days, mean over rates, replicates, four species; for Adjuvant effect on efficacy of nicosulfuron (in words): 0.2% v/v carbonate with nicosulfuron, Tables 8 and 9
# Protocol: as §7
# When the plants were at the vegetative stage of 3-4 leaves they were sprayed with an aqueous spray solution containing the herbicide nicosulfuron and 0.2% v/v of one of the carbonates A, B, C, D and E (see Table 7).
# Each spray solution was applied with a cabinet tracksprayer with a flat fan nozzle (Teejet 11002VS) and an application volume of 200 liter/ha (at 2 bar). Nicosulfuron was applied at either 15 or 60 grams of pesticide per hectare.
# The test plants were then grown on, in a glasshouse under controlled conditions (at 24/18° C. day/night; 16 hours light; 65% humidity) and watered twice a day. After 22 days the test was evaluated for general crop injury or phytotoxicity (100% equals total damage to a plant; 0% equals no damage to a plant).
# The results shown in Table 8 below are mean averages over the two rates of nicosulfuron, the three replicates and the four plant species, and are compared to the efficacy of nicosulfuron in the absence of an adjuvant and nicosulfuron in the presence of the commercially available tank-mix adjuvant, Atplus411F® (at 0.5% by volume).
# [13] = system: Brachiaria plantaginea, Digitaria sanguinalis, Commelina benghalensis and Polygonum convulvulus; assay: Glasshouse spray test, mesotrione with carbonates A-D (Example 6), mean over four plant species; assay type: in vivo; details: 0.2% v/v carbonate with mesotrione, Table 10
# Protocol: Brachiaria plantaginea, Digitaria sanguinalis, Commelina benghalensis and Polygonum convulvulus seeds were sown into standard soil in pots and cultivated under controlled conditions in a glasshouse (at 24/18° C. day/night; 16 hours light; 65% humidity).
# When the plants were at the vegetative stage of 2-4 leaves they were sprayed with an aqueous spray solution containing the herbicide mesotrione and 0.2% v/v of one of the carbonates A, B, C and D (see Table 7).
# The spray solution was applied with a cabinet tracksprayer with a flat fan nozzle (Teejet 11002VS) and an application volume of 200 liter/ha (at 2 bar). Mesotrione was applied at either 30 or 60 grams of pesticide per hectare.
# The test plants were then grown on, in a glasshouse under controlled conditions (at 24/18° C. day/night; 16 hours light; 65% humidity) and watered twice a day. After 25 days the test was evaluated for general crop injury or phytotoxicity (100% equals total damage to a plant; 0% equals no damage to a plant).
# The results shown in Table 10 below are mean averages over the two rates of mesotrione, the three replicates and the four plant species and are compared to the efficacy of mesotrione in the absence of an adjuvant, and mesotrione in the presence of the commercially available tank-mix adjuvant, Tween 20 ®+Rhodasurf DA/630-E® (combined in a 2:1 ratio) at 0.5% by volume.
# [14] = system: Avena fatua, Lolium perenne, Setaria viridis and Alopecurus myosuroides; assay: Glasshouse spray test, pinoxaden with carbonates A-E (Example 7), mean over four plant species; assay type: in vivo; details: 0.2% v/v carbonate with pinoxaden, Tables 11 and 12
# Protocol: Avena fatua, Lolium perenne, Setaria viridis and Alopecurus myosuroides seeds were sown into standard soil in pots and cultivated under controlled conditions in a glasshouse (at 20/16° C. day/night; 15 hours light; 65% humidity).
# When the plants were at the vegetative stage of 2-3 leaves they were sprayed with an aqueous spray solution containing the herbicide pinoxaden and 0.2% v/v of one of the carbonates A, B, C, D and E (see Table 7).
# The spray solution was applied with a cabinet tracksprayer with a flat fan nozzle (Teejet 11002VS) and an application volume of 200 liter/ha (at 2 bar). Pinoxaden was applied at either 7.5 or 15 grams of pesticide per hectare.
# The test plants were then grown on. in a glasshouse under controlled conditions (at 24/18° C. day/night; 16 hours light; 65% humidity) and watered twice a day. After 22 days the test was evaluated for general crop injury or phytotoxicity (100% equals total damage to a plant; 0% equals no damage to a plant).
# The results shown in Table 11 below are mean averages over the two rates of pinoxaden, the three replicates and the four plant species, and are compared to the efficacy of pinoxaden in the absence of an adjuvant, and pinoxaden in the presence of tris(2-ethylhexyl)phosphate, used as a standard adjuvant for comparative purposes (at 0.2% by […] volume).
# [15] = system: Septoria tritici; assay: Septoria tritici on wheat, isopyrazam with compound E (Example 8); assay type: in vivo; details: 0.1% v/v compound E with isopyrazam, Table 13
# Protocol: as §1, with “isopyrazam” for “epoxiconazole”
# The results shown in Table 13 below are mean averages over the four rates of isopyrazam and the four replicates, and are compared to the efficacy of isopyrazam in the absence of an adjuvant, and isopyrazam in the presence of oleyl ethoxylate 20EO butyl end capped adjuvant used as a standard adjuvant for comparative purposes (at 0.1% by volume).
compound,measurement,setting,value
Fc1ccc([C@]2(Cn3cncn3)O[C@H]2c2ccccc2Cl)cc1 (racemic) [Epoxiconazole],Mean % infection,"[1]; wheat leaf area infected 12 days after spray, epoxiconazole 3, 10, 30 and 100 mg/l, adjuvant 0.1% by volume, mean over four rates, four replicates",40.0%
CS(=O)(=O)NC(=O)c1cc(Oc2ccc(C(F)(F)F)cc2Cl)ccc1[N+](=O)[O-] [Fomesafen],"Mean percentage kill, Mean across species",[2],29.0 C %
same,Mean percentage kill COMBEN,[3],15.0%
same,Mean percentage kill SETVI,[4],19.2%
same,Mean percentage kill CHEAL,[5],58.3%
same,Mean percentage kill ABUTH,[6],23.3%
COc1cc(OC)nc(NC(=O)NS(=O)(=O)c2ncccc2C(=O)N(C)C)n1 [Nicosulfuron],"Mean percentage kill, Mean across species",[7],49.0 B %
same,Mean percentage kill SETVI,[8],79.2%
same,Mean percentage kill CHEAL,[9],36.7%
same,Mean percentage kill ABUTH,[10],48.3%
same,Mean percentage kill DIGSA,[11],31.7%
same,Mean % Phytotoxicity,"[12]; Table 8: nicosulfuron 15 or 60 g/ha, compounds A-D 0.2% by volume",36.46%
same,Mean % Phytotoxicity,"[12]; Table 9: nicosulfuron 15 or 60 g/ha, compound E 0.2% by volume",28.3%
"CCOC(=O)OCC(COC(=O)OCC)OC(=O)OCC [compound A, Glycerol-(CO3-ethyl)3]",Adjuvant effect on efficacy of mesotrione (in words),[13],particularly effective at increasing the efficacy of mesotrione compositions
same,Adjuvant effect on efficacy of nicosulfuron (in words),[12],increase the efficacy of nicosulfuron compositions
"CCCCC(CC)COC(=O)OCC(COC(=O)OCC(CC)CCCC)OC(=O)OCC(CC)CCCC (stereo not drawn) [compound B, Glycerol-(CO3-2-ethylhexy1)3]",Adjuvant effect on efficacy of pinoxaden (in words),[14],most effective at increasing the efficacy of the pinoxaden composition
same,Adjuvant effect on efficacy of mesotrione (in words),[13],particularly effective at increasing the efficacy of mesotrione compositions
same,Adjuvant effect on efficacy of nicosulfuron (in words),[12],increase the efficacy of nicosulfuron compositions
Glycerol-(6EO-CO3-2- ethylhexyl)3 [compound C],Adjuvant effect on efficacy of nicosulfuron (in words),[12],particularly effective as adjuvants for nicosulfuron
Glycerol-(6EO-CO3- phenyl)3 [compound D],Adjuvant effect on efficacy of nicosulfuron (in words),[12],particularly effective as adjuvants for nicosulfuron
Oleyl 10EO-(CO3-2- ethylhexyl) [compound E],Effect on infection by S. tritici versus epoxiconazole without adjuvant (in words),"[1]; 0.1% v/v compound E with epoxiconazole, Table 14",significant reduction in the percentage of infection by S. tritici
same,Adjuvant effect on efficacy of pinoxaden (in words),[14],effective as an adjuvant for pinoxaden
same,Effect on infection by S. tritici versus isopyrazam without adjuvant (in words),[15],significant reduction in the percentage of infection by S. tritici
same,Adjuvant effect on efficacy of nicosulfuron (in words),[12],particularly effective adjuvant for nicosulfuron

# Source: patent publication US9456599B2, “Adjuvants” (SYNGENTA LIMITED, priority 2012, dated 2016)
